The results in this text go back to patent US20260034107A1, “SUBSTITUTED FUSED IMIDAZOLE DERIVATIVES AND METHODS OF TREATING SICKLE CELL DISEASE AND RELATED COMPLICATIONS” (vTv Therapeutics LLC, priority 2019, published 2026).

Series [1] relates to HbF. Briefly: Western blot analysis of HbF induction in KU812 cells. Format: cell-based, human. Conditions: for HbF induction by Western blot: tested concentrations 0.5-20 μM; for increased HbF (Western blot): at concentrations between 0.5 to 5 PM. The procedure:
(§1) About 20-50 ug of protein is separated by SDS-polyacrylamide gel electrophoresis, and transferred to nitrocellulose membranes. Membranes are blocked in 5% dry milk containing TBS-T for 30 minutes followed by one hour and incubated with HbF or actin antibodies. After several washes, membranes are incubated with 1:10000 diluted HRP-conjugated secondary antibody (Thermo Scientific), developed with ECL Prime reagent (GE Healthcare Biosciences). Images may be captured on a Bio-Rad Chemi-Doc MP Imaging System and protein bands quantified by densitometry.
(§2) KU812, a human leukemic cell line that expresses the fetal gamma-globin and adult beta-globin genes, was used as a system for screening. […] (See Zein S, Lou R F, Sivanand S, Ramakrishnan V, Mackie A, Li W, Pace BS. KU812 Cell Line: model for identifying fetal hemoglobin inducing drugs. Exp Biol Med (Maywood) 235:1385-94, 2010.) KU812 cells were grown in Iscove's Modified Dulbecco Media (IMDM) and 10% fetal bovine serum until in log phase growth.
Western blot analysis was also conducted to determine level of induction of HbF in KU812 cells by Compounds 73, 134, 473, and 236. Hydroxyurea and hemin were used as positive controls, and ß-actin was used as a protein loading control.
For orientation: Immunoblotting shows a protein as a band on a membrane.

Series [2] has as its system HbF. As to the kind of experiment: Flow cytometry of KU812 cells for HbF positive cells (F-cells) and MFI. It counts as cell-based, human. As to conditions: flow cytometry, 0.5, 2.5, 5, 10, and 20 μM. The procedure:
(§3) About 5×10^5 cells are harvested after treatment with compound, washed twice with ice cold phosphate buffered saline and resuspended in 4% paraformaldehyde for 40 minutes at 37° C. Fixed cells are permeabilized with ice-cold acetone/methanol (4:1) and washed with phosphate buffered saline followed by incubation with FITC-conjugated anti-HbF antibody (1:1000, Abcam) for 20 minutes. The labeled cells may be analyzed using a Becton Dickerson LSR-II flow cytometer (BD Bioscience, San Jose, CA, USA) and FlowJo v0.9 software.
as §2
Flow cytometry was conducted for KU812 cells following treatment with Compounds 473 and 236 at various concentrations (0.5, 2.5, 5, 10, and 20 μM). […] Compounds 73 and 134 were not analyzed by flow cytometry.
(Flow cytometry measures light scatter and fluorescence of single cells or particles in a stream.)

The test system of a further series is KU812 cells. Briefly: KU812 cell counts and viability by 0.4% Trypan blue exclusion. It counts as cell-based, human. As to conditions: 48 hours, 0.5, 2.5, 5.0 and 20 μM, widest range of drug concentrations. The procedure:
as §2
KU812 cells in log growth phase were treated with compounds 73, 134, 473 and 236 (See Table A) at a doses of 0.5, 2.5, 5.0 and 20 μM for 48 hours. At harvest, cell counts and viability were measured by 0.4% Trypan blue exclusion.

For a further series, the system named is γ-globin. Briefly: γ-globin / HbF expression in sickle erythroid progenitor cells. It counts as cell-based. As to conditions: 48 hours. The procedure:
as §1
About 5×10^5 cells are harvested after treatment with compound, washed twice with ice cold phosphate buffered saline and resuspended in 4% paraformaldehyde for 40 minutes at 37° C. […] The labeled cells may be analyzed using a Becton Dickerson LSR-II flow cytometer (BD Bioscience, San Jose, CA, USA) and FlowJo v0.9 software.
To test compounds under conditions more closely modeling physiological conditions for one with a SCD, sickle erythroid progenitor cells were cultured for 10 days and then treated with Compound 473 for 48 hours at concentrations of 0.5 μM and 2.5 μM. Treated cells were analyzed by western blot for levels of expression of HbF, HbS, and ß-actin relative to cells treated with DMSO, hemin, or HU. […]

The subject of a further series is HbS. As to the kind of experiment: Western blot of HbS protein in sickle erythroid progenitor cells. Format: cell-based. As to conditions: 0.5 μM and 2.5 μM, 48 hours. The procedure: as §1
(§4) To test compounds under conditions more closely modeling physiological conditions for one with a SCD, sickle erythroid progenitor cells were cultured for 10 days and then treated with Compound 473 for 48 hours at concentrations of 0.5 μM and 2.5 μM. Treated cells were analyzed by western blot for levels of expression of HbF, HbS, and ß-actin relative to cells treated with DMSO, hemin, or HU. The same treated cells were also analyzed by flow cytometry for y-globin gene expression relative to cells treated with DMSO, hemin, or HU.

Series [3] concerns HbF. Briefly: Flow cytometry of F-cells in sickle erythroid progenitor cells. As to conditions: 0.5 μM and 2.5 μM, 48 hours. It counts as cell-based. The procedure:
as §3, §4

The test system of series [4] is sickle erythroid progenitor cells. As to the kind of experiment: Anti-sickling activity in sickle erythroid progenitor cells under hypoxia. It counts as cell-based. As to conditions: 0.5 μM and 2.5 μM, 48 hours, hypoxia (1% O2 and 5% CO2). The procedure: As described above, sickle erythroid progenitor cells were cultured for 10 days and then treated with Compound 473 for 48 hours at concentrations of 0.5 μM and 2.5 μM or with hemin (about 50 μM) or with HU (about 100 μM). Treated cells were then subjected to hypoxia conditions (1% O2 and 5% CO2).

Consider `COCCNC(=O)c1cnc2c(c1)nc(Nc1nc3ccc(OC(F)(F)F)cc3s1)n2C` [Compound 73, 3-Methyl-2-(6-trifluoromethoxy-benzothiazol-2-ylamino)-3H-imidazo[4,5-b]pyridine-6-carboxylic acid (2-methoxy-ethyl)-amide], for which the “HbF induction by Western blot” value in the series with HbF [1] was “showed HbF induction”.

As for `Cn1c(Nc2nc3ccc(C(F)(F)F)cc3s2)nc2cc(C(=O)NCCOCCO)ccc21` [Compound 236, 1-Methyl-2-(6-trifluoromethyl-benzothiazol-2-ylamino)-1H-benzoimidazole-5-carboxylic acid [2-(2-hydroxy-ethoxy)-ethyl]-amide], the “HbF induction by Western blot” value in the series with HbF [1] is on record as “did not show significant induction of HbF”. Besides, in the series with HbF [2], the “mean fluorescence intensity (MFI)” value was “some increase in MFI” and the “number of HbF positive cells (F-cells)” value is recorded as “did not significantly increase F-cells”.

Turning to `CN(C)C(=O)CNC(=O)c1ccc2c(c1)nc(Nc1nc3ccc(C(F)(F)F)cc3s1)n2C` [Compound 134, 1-Methyl-2-(6-trifluoromethyl-benzothiazol-2-ylamino)-1H-benzimidazole-5-carboxylic acid dimethylcarbamoylmethyl-amide], in the series on KU812 cells, the “effects on cell growth rates” value is listed as “minimal effects”. Moreover, in the series with HbF [1], the “increased HbF (Western blot)” value was “increased HbF” and the “HbF induction by Western blot” value is “showed HbF induction”.

Turning to `Cn1c(Nc2nc3ccc(C(F)(F)F)cc3s2)nc2cc(C(=O)NCCOCCO)cnc21` [Compound 473, N-[2-(2-Hydroxyethoxy)ethyl]-3-methyl-2-[[6-(trifluoromethyl)-1,3-benzothiazol-2-yl]amino]imidazo[4,5-b]pyridine-6-carboxamide], the “effects on cell growth rates” value in the series on KU812 cells is “minimal effects”. Moreover, in the series with HbF [1], the “increased HbF (Western blot)” value was “increased HbF” and the “HbF induction by Western blot” value is “showed HbF induction”. In the series on HbF [2], the “mean fluorescence intensity (MFI)” value is listed as “increased mean fluorescence intensity” and the “number of HbF positive cells (F-cells)” value is listed as “increase in the number of HbF positive cells”. Besides, the “γ-globin gene expression induction” value with γ-globin (0.5 μM) is recorded as 1.6 fold. Further, the “γ-globin gene expression induction” value with γ-globin (2.5 μM) is listed as 1.9 fold. In addition, the HbS protein levels result in the series with HbS is on record as “without affecting HbS protein levels”. Also, in the series with HbF [3], the “F-cell levels by flow cytometry” value was “Increased F-cell levels”. Further, in series [4], the “percent of sickled cells compared to DMSO control” value was “significantly decreased the percent of sickled cells”.
